Data reported in patent publication US20220347175A1, “PYRIDAZINONE DERIVATIVE” (Sumitomo Dainippon Pharma Co., Ltd., priority 2018, published 2022).

target: T1, human Nav1.1 (Homo sapiens, UniProt P35498); test: Amplification of Nav1.1-derived voltage-dependent sodium current (Nav1.1 current), cell line stably expressing human Nav1.1, automated patch clamp; format: cell-based; details: 10 μmol/L compound (Test Result 5)
T1 construct: host or cells: HEK293
Description: Test 1: Evaluation of the Amplification of Nav1.1-Derived Voltage-Dependent Sodium Current (Nav1.1 Current) by Using a Cell Line Stably Expressing Human Nav1.1
(1) Preparation of Test Compounds
Test compounds were prepared by dissolving in DMSO at 200 times of the concentration at evaluation, and diluting the obtained solution to twice the concentration of evaluation with an extracellular fluid (135 mmol/L NaCl, 4 mmol/L KCl, 1 mmol/L MgCl2, 5 mmol/L CaCl2, 5 mmol/L Glucose, 10 mmol/L HEPES).
(2) Induction and Measurement of Nav1.1 Current
A HEK293 cell line stably expressing human Nav1.1 (cat #CYL3009, Millipore, USA, Human Embryonic Kidney 293) was purchased, and used in the present test. Nav1.1 current was induced by stimulating Ramp wave voltage. Detection of current which accompanied with the stimulation of voltage was carried out by a patch-clamp voltage-clamp method using HTS automated patch clamp system (SynchroPatch 768PE, Nanion Technologies GmbH, Germany). Only cells with more than 500 pA of voltage-dependent sodium channel current were used for the evaluation of the activity of compounds on Nav1.1 current because there was the possibility that currents derived from endogenous voltage-dependent sodium channels accounted for large proportion in cells with less than 500 pA of voltage-dependent sodium channel current which was induced by stimulating Ramp wave voltage.
(3) Pharmacologic Effect on Nav1.1 Current
The effect of test compounds on the amplification of Nav1.1-derived voltage-dependent sodium current was evaluated by using a cell line stably expressing human Nav1.1 and HTS automated patch clamp system. In other words, test compounds were added in an extracellular fluid containing 1% DMSO, and evaluated as a change of the peak value of Nav1.1 current and the area under the curve (AUC).
(4) Method for Pharmacological Evaluation
The Nav1.1 current amplification rates of test compounds were calculated by the following formula:
Nav1.1 current amplification rate (%)=100×[the peak value of Nav1.1 current or the area under the curve after the addition of test compounds]/[the peak value of Nav1.1 current or the area under the curve before the addition of test compounds]−100

| Nav1.1 current amplification rate (%) | Structure (SMILES) |
| --- | --- |
| 324 | CC1CC=C(c2ccc(=O)n(CC(=O)Nc3ccc(C#N)cc3)n2)CC1 (stereo not drawn) [Example 41] |
| 18 | CC1CC=C(c2ccc(=O)n(CC(=O)Nc3ccc(C4=CCN(C)C4)nc3)n2)CC1 (racemic) [Example 374] |
| 202 | CC1(C)CCC=C(c2ccc(=O)n(CC(=O)Nc3ccc(C#N)cc3)n2)C1 [Example 45] |
| 125 | N#Cc1ccc(NC(=O)Cn2nc(C3=CCCCC3)ccc2=O)cc1 [Example 39] |
| 110 | CC1(C)CCCN(c2ccc(=O)n(CC(=O)Nc3ccc(C#N)cc3)n2)C1 [Example 22] |

Continued, molecule first:

| Structure (SMILES) | Nav1.1 current amplification rate (%) |
| --- | --- |
| CC1CC=C(c2ccc(=O)n(CC(=O)N3CCc4c(C5CN(C(C)C)C5)cccc43)n2)CC1 (racemic) [Example 304] | 167 |
| N#Cc1ccc(NC(=O)Cn2nc(N3CCCCC3)ccc2=O)cc1 [Example 3] | 40 |
| CCC1(C)CCN(c2ccc(=O)n(CC(=O)Nc3ccc(C#N)cc3)n2)CC1 [Example 28] | 158 |
| CC1CCC(c2ccc(=O)n(CC(=O)Nc3ccc(C#N)cc3)n2)CC1 (stereo not drawn) [Example 43] | 174 |
| CC1CCN(c2nn(CC(=O)Nc3ccc(C#N)cc3)c(=O)c3c2CCCC3)CC1 [Example 36] | 312 |
| CC1CC=C(c2ccc(=O)n(CC(=O)N3CCC(Cc4ccccc4)C3)n2)CC1 (racemic) [Example 389] | 53 |
| CC1CC=C(c2ccc(=O)n(CC(=O)N3CCC(c4cccnc4)CC3)n2)CC1 (racemic) [Example 262] | 124 |
| COC1CCN(c2ccc(=O)n(CC(=O)Nc3ccc(C#N)cc3)n2)CC1 [Example 9] | 11 |
| CC(C)(C)C1CCN(c2ccc(=O)n(CC(=O)Nc3ccc(C#N)cc3)n2)CC1 [Example 6] | 35 |
| N#Cc1ccc(NC(=O)Cn2nc(N3CCCC4(CC4)C3)ccc2=O)cc1 [Example 20] | 152 |
| N#Cc1ccc(NC(=O)Cn2nc(N3CCC4(CCC4)CC3)ccc2=O)cc1 [Example 26] | 364 |
| N#Cc1ccc(NC(=O)Cn2nc(N3CCCCCC3)ccc2=O)cc1 [Example 11] | 205 |
| CC1(C)CCCC(c2ccc(=O)n(CC(=O)Nc3ccc(C#N)cc3)n2)C1 (stereo not drawn) [Example 46] | 85 |
| N#Cc1ccc(NC(=O)Cn2nc(N3CCC4(CCCC4)C3)ccc2=O)cc1 [Example 24] | 286 |

same assay, conditions: 10 μmol/L compound (Test Result 5); read-out: Nav1.1 current amplification rate (%)

| activation at 10 µM [%] | Structure (SMILES) |
| --- | --- |
| 148 | CC1(C)CCN(c2ccc(=O)n(CC(=O)Nc3ccc(C#N)cc3)n2)CC1 [Example 2, N-(4-Cyanophenyl)-2-[3-(4,4-dimethylpiperidin-1-yl)-6-oxopyridazin-1(6H)-yl]acetamide] |
| 7 | CC1(C)CC=C(c2ccc(=O)n(CC(=O)NC3CCn4ccnc4C3)n2)CC1 (stereo not drawn) [Example 534] |

The remaining lines, values behind:

| Structure (SMILES) | activation at 10 µM [%] |
| --- | --- |
| CC1CC=C(c2ccc(=O)n(CC(=O)NC3CCn4ccnc4C3)n2)CC1 (stereo not drawn) [Example 533] | 22 |
| COc1cccc2c1CCN2C(=O)Cn1nc(N2CCC(C)(C)CC2)ccc1=O [Example 186] | 51 |
| O=C(Cn1nc(C2=CCCCO2)ccc1=O)N1CCc2c(-c3ccnnc3)cccc21 [Example 525] | 18 |

same assay, conditions: Concentration 1 μM (Test Result 7); read-out: Nav1.1 current amplification rate (%)

| activation at 1 µM [%] | Structure (SMILES) |
| --- | --- |
| 50 | CN(c1ccc(=O)n(CC(=O)Nc2ccc3cnccc3c2)n1)C1CCCC1 [Example 563] |
| 80 | CCC1CC=C(c2ccc(=O)n(CC(=O)Nc3ccc4ncnn4c3)n2)CC1 (stereo not drawn) [Example 555] |
| 98 | Cc1ccc(-c2ccc(=O)n(CC(=O)Nc3ccn4ncnc4c3)n2)c(F)c1 [Example 566] |
| 13 | CN(c1ccc(=O)n(CC(=O)Nc2ccn3ncnc3c2)n1)C1CCCC1 [Example 556] |
| 325 | COc1cc(=O)n(CC(=O)Nc2ccc3cncnc3c2)nc1C1=CCC(C)(C)CC1 [Example 541] |
| 33 | CC1CC=C(c2ccc(=O)n(CC(=O)Nc3cccc(N4CCOCC4)c3)n2)CC1 (stereo not drawn) [Example 549] |
| 12 | N#Cc1ccc(NC(=O)Cn2nc(N3CCC4(CC4)C(F)(F)C3)ccc2=O)cn1 [Example 560] |

same assay, conditions: Concentration 10 μM (Test Result 7); read-out: Nav1.1 current amplification rate (%)

| activation at 10 µM [%] | Structure (SMILES) |
| --- | --- |
| 24 | COc1cc(C)cc(F)c1-c1ccc(=O)n(CC(=O)Nc2ccn3ncnc3c2)n1 [Example 571] |

same assay, conditions: compound 50 μmol/L; HEK293 stably expressing human Nav1.1

| Nav1.1 current amplification rate (%) | Structure (SMILES) |
| --- | --- |
| 202 | CC1CC=C(c2ccc(=O)n(CC(=O)Nc3ccc4nncn4c3)n2)CC1 (racemic) [Example 341] |
| 32 | Cc1c(NC(=O)Cn2nc(C3=CCC(C)CC3)ccc2=O)ccc2ncnn12 (racemic) [Example 353] |
| 41 | Cc1cc2nc(NC(=O)Cn3nc(C4=CCC(C)CC4)ccc3=O)ccn2n1 (racemic) [Example 340] |
| 64 | CC1CC=C(c2ccc(=O)n(CC(=O)Nc3ccnc(C4=CCN(C)C4)c3)n2)CC1 (racemic) [Example 371] |

The next lines start with the molecule.

| Structure (SMILES) | Nav1.1 current amplification rate (%) |
| --- | --- |
| CC1CC=C(c2ccc(=O)n(CC(=O)N3CCc4c(C=C5CCNCC5)cccc43)n2)CC1 (racemic) [Example 293] | 55 |
| Cc1nc(N2CCN(C(=O)Cn3nc(C4=CCC(C)CC4)ccc3=O)CC2)no1 (stereo not drawn) [Example 406] | 68 |

same assay, conditions: compound 50 μmol/L; HEK293 stably expressing human Nav1.1; read-out: Nav1.1 current amplification rate (%)

| Structure (SMILES) | activation at 50 µM [%] |
| --- | --- |
| CC1(C)CC(c2ccc(=O)n(CC(=O)Nc3ccc(C#N)cc3)n2)=CCO1 [Example 506] | 10 |
| CC1CC2CCC(C1)N2c1ccc(=O)n(CC(=O)Nc2ccn3ccnc3c2)n1 (stereo not drawn) [Example 237] | 27 |

same assay, conditions: concentration of each compound 1 μmol/L (Test Result 6)

| Nav1.1 current amplification rate (%) | Structure (SMILES) |
| --- | --- |
| 57 | CC1CC=C(c2ccc(=O)n(CC(=O)Nc3cnc4c(cnn4C)c3)n2)CC1 (racemic) [Example 348] |
| 52 | CC1CC=C(c2ccc(=O)n(CC(=O)Nc3cnc4nccn4c3)n2)CC1 (racemic) [Example 337] |
| 71 | CC1CC=C(c2ccc(=O)n(CC(=O)Nc3ccn4cnnc4c3)n2)CC1 (racemic) [Example 358] |

Further lines, the molecule ahead of its results:

| Structure (SMILES) | Nav1.1 current amplification rate (%) |
| --- | --- |
| COC1CCN(Cc2cccc3c2CCN3C(=O)Cn2nc(C3=CCC(C)CC3)ccc2=O)C1 (mixture of isomers) [Example 272] | 127 |
| Cc1cn(Cc2cccc3c2CCN3C(=O)Cn2nc(C3=CCC(C)CC3)ccc2=O)cn1 (racemic) [Example 288] | 115 |
| CC1CC=C(c2ccc(=O)n(CC(=O)N3CCc4c3ccnc4-c3cccnc3)n2)CC1 (racemic) [Example 297] | 151 |
| CC1CC=C(c2ccc(=O)n(CC(=O)N3CC=C(c4ccncc4)CC3)n2)CC1 (stereo not drawn) [Example 419] | 66 |
| CC1CC=C(c2ccc(=O)n(CC(=O)N3CC=C(c4ccncc4)C3)n2)CC1 (racemic) [Example 387] | 19 |
| CC1CC=C(c2ccc(=O)n(CC(=O)N3CCc4c3ccnc4C3=CCN(C(=O)OC(C)(C)C)C3)n2)CC1 (racemic) [Example 280] | 10 |
| CC1CC=C(c2ccc(=O)n(CC(=O)N3CCCN(c4cccnc4)CC3)n2)CC1 (racemic) [Example 384] | 15 |
| CC1CC=C(c2ccc(=O)n(CC(=O)N3CCc4c3ccnc4-c3cn[nH]c3)n2)CC1 (racemic) [Example 285] | 113 |
| CC1CC=C(c2ccc(=O)n(CC(=O)N3CCc4c(CNCC(F)F)cccc43)n2)CC1 (racemic) [Example 312] | 80 |
| CC1CC=C(c2ccc(=O)n(CC(=O)N3CCc4cc(OCC(C)(C)O)ccc43)n2)CC1 (racemic) [Example 320] | 10 |

same assay, conditions: concentration of each compound 1 μmol/L (Test Result 6); read-out: Nav1.1 current amplification rate (%)

| activation at 1 µM [%] | Structure (SMILES) |
| --- | --- |
| 33 | O=C(Cn1nc(N2CCC3(CCC3)C2)ccc1=O)Nc1ccn2ncnc2c1 [Example 230] |
| 50 | O=C(Cn1nc(N2CCC3(CCC3)CC2)ccc1=O)Nc1ccn2ncnc2c1 [Example 231] |
| 43 | Cc1ccc(Oc2ccc(=O)n(CC(=O)N3CCc4c(-c5ccnnc5)cccc43)n2)cc1 [Example 529] |
| 37 | CC1(C)CC=C(c2ccc(=O)n(CC(=O)Nc3ccn4ncnc4c3)n2)C1 [Example 496] |
| 29 | CC1(C)CCN(c2ccc(=O)n(CC(=O)Nc3ccn4ncnc4c3)n2)CC1 [Example 228] |
| 33 | Cc1cc(=O)n(CC(=O)Nc2ccc3ncnn3c2)nc1C1=CCC(C)CC1 (stereo not drawn) [Example 501] |
| 27 | Cc1cc(=O)n(CC(=O)Nc2ccc3oc(N(C)C)nc3c2)nc1C1=CCC(C)(C)CC1 [Example 504] |
